Measured values taken from patent US20260042764A1, “COMPOSITIONS AND METHODS FOR INHIBITION OF KRAS” (TheRas, Inc., priority 2022, published 2026).

Legend:
[1] = system: SW620 cells (KRAS G12V); experiment: Cell-based pERK HTRF assay in SW620 cell (Biological Example 4); conditions: pERK HTRF
Procedure, shortened: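 SW620 seeded in RPMI/10% FBS, next day dosed 4 h (top 1 μM, half-log, 9 pts, 0.25% DMSO). Lysed, pERK by d2/Eu cryptate HTRF, 4–24 h RT, 615 nm read.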

[2] = molecular target: T1, Avi-KRAS WT (1-169) GppNHp/RAF1 RBD-3xFLAG (52-151) (Homo sapiens, UniProt P01116); experiment: Raf1-KRAS WT-GppNHP disruption HTRF assay (Biological Example 1); type: binding
T1 construct: Avi-KRAS WT (1-169)
T1 sequence (P01116 1-169 isoform P01116-2): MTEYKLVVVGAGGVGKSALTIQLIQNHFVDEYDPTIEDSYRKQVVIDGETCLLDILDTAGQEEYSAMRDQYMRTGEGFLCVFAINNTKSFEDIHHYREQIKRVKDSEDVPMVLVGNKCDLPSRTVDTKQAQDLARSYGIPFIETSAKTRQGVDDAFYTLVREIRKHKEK
Procedure, shortened: (§1)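 Read-out is HTRF signal of the KRAS–RAF1 RBD complex, reported as percentage of activity relative to DMSO (100%). Protein mix and detection reagents each incubated 1 h at room temperature with 700 rpm shaking. Buffer: 50 mM Tris pH 7.5, 100 mM NaCl, 5 mM MgCl2, 0.1% BSA, 0.01% Tween, 10% DMSO.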

[3] = system: GP2d cells (KRAS G12D); experiment: Cell-based pERK HTRF assay in GP2d cell (Biological Example 2); conditions: GP2d (KRAS G12D) cells, pERK HTRF
Procedure, shortened: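 Treatment with test compounds lasted one hour in DMEM containing 10% FBS, with DMSO held at 0.25%. Dilution series: 9 points, half-log spacing, highest 1 μM or 100 nM. Lysates were incubated 4–24 h at room temperature with antibody mix, then HTRF was read at 320 nm excitation.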

[4] = molecular target: T2, Avi-KRAS G12R (1-169) GppNHp/RAF1 RBD-3xFLAG (52-151) (Homo sapiens, UniProt P01116, G12R); experiment: Raf1-KRAS G12R-GppNHP disruption HTRF assay (Biological Example 1); type: binding
T2 construct: Avi-KRAS G12R (1-169)
T2 sequence (P01116 1-169 isoform P01116-2 G12R): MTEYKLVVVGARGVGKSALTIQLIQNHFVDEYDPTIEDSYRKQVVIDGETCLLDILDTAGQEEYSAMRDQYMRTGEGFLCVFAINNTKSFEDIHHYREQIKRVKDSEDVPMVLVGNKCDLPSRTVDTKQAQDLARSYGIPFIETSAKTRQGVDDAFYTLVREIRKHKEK
Procedure, shortened: as §1

[5] = molecular target: T3, Avi-KRAS G12D (1-169) GppNHp/RAF1 RBD-3xFLAG (52-151) (Homo sapiens, UniProt P01116, G12D); experiment: Raf1-KRAS G12D-GppNHP disruption HTRF assay (Biological Example 1); type: binding
T3 construct: Avi-KRAS G12D (1-169)
T3 sequence (P01116 1-169 isoform P01116-2 G12D): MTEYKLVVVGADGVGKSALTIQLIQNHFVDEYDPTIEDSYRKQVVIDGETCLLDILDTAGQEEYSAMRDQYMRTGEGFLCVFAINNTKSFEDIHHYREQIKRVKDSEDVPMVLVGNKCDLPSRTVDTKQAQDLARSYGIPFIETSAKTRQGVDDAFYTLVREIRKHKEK
Procedure, shortened: as §1

[6] = molecular target: T4, Avi-KRAS G12V (1-169) GppNHp/RAF1 RBD-3xFLAG (52-151) (Homo sapiens, UniProt P01116, G12V); experiment: Raf1-KRAS G12V-GppNHP disruption HTRF assay (Biological Example 1); type: binding
T4 construct: Avi-KRAS G12V (1-169)
T4 sequence (P01116 1-169 isoform P01116-2 G12V): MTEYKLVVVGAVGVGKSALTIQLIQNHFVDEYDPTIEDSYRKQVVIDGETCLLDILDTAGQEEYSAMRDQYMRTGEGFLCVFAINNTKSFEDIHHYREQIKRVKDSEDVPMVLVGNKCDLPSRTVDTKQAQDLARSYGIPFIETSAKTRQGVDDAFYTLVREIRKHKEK
Procedure, shortened: as §1

[7] = Homo sapiens, SW-620, SW620 (KRAS G12V) cells
[8] = Homo sapiens, SW-620, SW620 (KRAS G12V) cells, class symbols
[9] = KRAS WT, GppNHp-loaded, class symbols
[10] = KRAS G12R, GppNHp-loaded, class symbols
[11] = KRAS G12D, GppNHp-loaded, class symbols
[12] = KRAS G12V, GppNHp-loaded, class symbols
[13] = KRAS WT, GppNHp-loaded, Table 11
[14] = KRAS G12R, GppNHp-loaded, Table 11
[15] = KRAS G12D, GppNHp-loaded, Table 11
[16] = KRAS G12V, GppNHp-loaded, Table 11

IC50 [1, 7] [nM] | IC50 ([2]; KRAS WT-GppNHp/RAF1 RBD HTRF) [nM] | IC50 ([3]; GP2d) [nM] | IC50 ([4]; KRAS G12R-GppNHp/RAF1 RBD HTRF) [nM] | IC50 ([5]; KRAS G12D-GppNHp/RAF1 RBD HTRF) [nM] | IC50 ([6]; KRAS G12V-GppNHp/RAF1 RBD HTRF) [nM] | further results | SMILES
< 100 | > 10000 | < 100 | > 10000 | 1000 to 10000 | > 10000 |  | N#Cc1c(N)sc2c(F)ccc(-c3c(C(F)(F)F)cc4c(N5CCn6nc(C7CC7)cc6C5)nc(OC[C@@]56CCCN5C[C@H](F)C6)nc4c3F)c12 [Compound 483]
 |  |  |  |  |  | IC50 [1, 8]: < 100 nM; IC50 [2, 9]: < 100 nM; IC50 ([3]; GP2d, class symbols): < 100 nM; IC50 [4, 10]: < 100 nM; IC50 [5, 11]: < 100 nM; IC50 [6, 12]: < 100 nM | CCN(c1nc(OC[C@@]23CCCN2C[C@H](F)C3)nc2c(F)c(-c3ccc(F)c4sc(N)c(C#N)c34)c(C(F)(F)F)cc12)[C@H]1C[C@@H]2CCC(=O)N2C1 (atropisomer, axis not shown) [Compound 628]
 |  |  |  |  |  | IC50 ([1]; SW620 (KRAS G12V) cells): > 1000 nM; IC50 [2, 13]: 100 to 1000 nM; IC50 [3]: 100 to 1000 nM; IC50 [4, 14]: 1000 to 10000 nM; IC50 [5, 15]: 100 to 1000 nM; IC50 [6, 16]: 1000 to 10000 nM | CN(c1nc(OC[C@@]23CCCN2C[C@H](F)C3)nc2c(F)c(-c3ccc(F)c4sc(N)c(C#N)c34)c(C(F)(F)F)cc12)[C@]1(CC#N)C[C@@H](O)C1 (atropisomer, axis not shown) [Compound 254]
< 100 |  | < 100 |  |  |  | IC50 [2, 13]: 100 to 1000 nM; IC50 [4, 14]: 100 to 1000 nM; IC50 [5, 15]: 100 to 1000 nM; IC50 [6, 16]: 100 to 1000 nM | CC(=O)N1C[C@@H](N(C)c2nc(OC[C@@]34CCCN3C[C@H](F)C4)nc3c(F)c(-c4ccc(F)c5sc(N)c(C#N)c45)c(C(F)(F)F)cc23)C[C@H]1C [Compound 277]
 |  |  |  |  |  | IC50 [1, 8]: < 100 nM; IC50 [2, 9]: 100 to 1000 nM; IC50 ([3]; GP2d, class symbols): < 100 nM; IC50 [4, 10]: 100 to 1000 nM; IC50 [5, 11]: < 100 nM; IC50 [6, 12]: 100 to 1000 nM | N#Cc1c(N)sc2c(F)ccc(-c3c(C(F)(F)F)cc4c(N(C5CC5)[C@H]5CCN(C(=O)N6CC(F)C6)C5)nc(OC[C@@]56CCCN5C[C@H](F)C6)nc4c3F)c12 (atropisomer, axis not shown) [Compound 813]
< 100 | 100 to 1000 | < 100 | 100 to 1000 | 100 to 1000 | 100 to 1000 |  | N#Cc1c(N)sc2c(F)ccc(-c3c(C(F)(F)F)cc4c(N5CCS(=N)(=O)CC5)nc(OC[C@@]56CCCN5C[C@H](F)C6)nc4c3F)c12 [Compound 297]
< 100 | 100 to 1000 | < 100 | 1000 to 10000 | 100 to 1000 | 1000 to 10000 |  | CN1C[C@@H](N(C)c2nc(OC[C@@]34CCCN3C[C@H](F)C4)nc3c(F)c(-c4ccc(F)c5sc(N)c(C#N)c45)c(C(F)(F)F)cc23)CCC1=O [Compound 478]
< 100 | 100 to 1000 | < 100 | 100 to 1000 | 100 to 1000 | 100 to 1000 |  | CC(=O)N1CCC[C@@H](N(C)c2nc(OC[C@@]34CCCN3C[C@H](F)C4)nc3c(F)c(-c4ccc(F)c5sc(N)c(C#N)c45)c(C(F)(F)F)cc23)C1 [Compound 295]
 | 1000 to 10000 |  | 1000 to 10000 | 1000 to 10000 | 1000 to 10000 | IC50 ([1]; SW620 (KRAS G12V) cells): < 100 nM; IC50 [3]: < 100 nM | N#Cc1c(N)sc2c(F)ccc(-c3c(C(F)(F)F)cc4c(N5CCN6C(=O)OCC6C5)nc(OCC56CCCN5CC(F)C6)nc4c3F)c12 (stereo not drawn) [Compound 431]
 |  |  |  |  |  | IC50 [1, 8]: < 100 nM; IC50 [2, 9]: < 100 nM; IC50 ([3]; GP2d, class symbols): < 100 nM; IC50 [4, 10]: < 100 nM; IC50 [5, 11]: < 100 nM; IC50 [6, 12]: < 100 nM | CCN(c1nc(OC[C@@]23CCCN2C[C@H](F)C3)nc2c(F)c(-c3ccc(F)c4sc(N)c(C#N)c34)c(C(F)(F)F)cc12)[C@H]1CCN(C(=O)c2cc(C)no2)C1 (atropisomer, axis not shown) [Compound 771]
< 100 | 100 to 1000 | < 100 | 100 to 1000 | 100 to 1000 | 100 to 1000 |  | CCN(c1nc(OC[C@@]23CCCN2C[C@H](F)C3)nc2c(F)c(-c3ccc(F)c4sc(N)c(C#N)c34)c(C(F)(F)F)cc12)[C@H]1C[C@@H](C)N(C(=O)N(C)C)C1 (atropisomer, axis not shown) [Compound 558]
